We go through 33 molecules from US8952034B2, “Fused heterocyclic compounds as ion channel modulators” (Gilead Sciences, Inc., priority 2009, dated 2015).

The target in the test is wild-type human cardiac sodium channel, hNav1.5 (Homo sapiens, UniProt Q14524). As to the kind of experiment: Late INa screening assay (automated whole cell patch clamp, PatchXpress). Conditions: HEK293 cells expressing hNav1.5, late INa generated with 10 μM Tefluthrin (or 50 nM ATX II); for inhibition at 1 µM: compound at 1 μM, read-out: LateINa_1 uM (percent block of late INa); for inhibition at 10 µM: compound at 10 μM, read-out: LateINa_10 uM (percent block of late INa). It is filed as cell-based. Summed up: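 Late sodium current through wild-type human hNav1.5 stably expressed in HEK293 cells (no beta subunits) was recorded by automated whole-cell patch clamp on a PatchXpress 7000A at 24-27° C. Late INa was induced with 10 μM Tefluthrin or 50 nM ATX II. Cells were stepped from −120 mV to −20 mV for 250 ms at 0.1 Hz, and percent block was normalized to current in Na-free extracellular solution.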
Chain of wild-type human cardiac sodium channel, hNav1.5 (Q14524 whole entry): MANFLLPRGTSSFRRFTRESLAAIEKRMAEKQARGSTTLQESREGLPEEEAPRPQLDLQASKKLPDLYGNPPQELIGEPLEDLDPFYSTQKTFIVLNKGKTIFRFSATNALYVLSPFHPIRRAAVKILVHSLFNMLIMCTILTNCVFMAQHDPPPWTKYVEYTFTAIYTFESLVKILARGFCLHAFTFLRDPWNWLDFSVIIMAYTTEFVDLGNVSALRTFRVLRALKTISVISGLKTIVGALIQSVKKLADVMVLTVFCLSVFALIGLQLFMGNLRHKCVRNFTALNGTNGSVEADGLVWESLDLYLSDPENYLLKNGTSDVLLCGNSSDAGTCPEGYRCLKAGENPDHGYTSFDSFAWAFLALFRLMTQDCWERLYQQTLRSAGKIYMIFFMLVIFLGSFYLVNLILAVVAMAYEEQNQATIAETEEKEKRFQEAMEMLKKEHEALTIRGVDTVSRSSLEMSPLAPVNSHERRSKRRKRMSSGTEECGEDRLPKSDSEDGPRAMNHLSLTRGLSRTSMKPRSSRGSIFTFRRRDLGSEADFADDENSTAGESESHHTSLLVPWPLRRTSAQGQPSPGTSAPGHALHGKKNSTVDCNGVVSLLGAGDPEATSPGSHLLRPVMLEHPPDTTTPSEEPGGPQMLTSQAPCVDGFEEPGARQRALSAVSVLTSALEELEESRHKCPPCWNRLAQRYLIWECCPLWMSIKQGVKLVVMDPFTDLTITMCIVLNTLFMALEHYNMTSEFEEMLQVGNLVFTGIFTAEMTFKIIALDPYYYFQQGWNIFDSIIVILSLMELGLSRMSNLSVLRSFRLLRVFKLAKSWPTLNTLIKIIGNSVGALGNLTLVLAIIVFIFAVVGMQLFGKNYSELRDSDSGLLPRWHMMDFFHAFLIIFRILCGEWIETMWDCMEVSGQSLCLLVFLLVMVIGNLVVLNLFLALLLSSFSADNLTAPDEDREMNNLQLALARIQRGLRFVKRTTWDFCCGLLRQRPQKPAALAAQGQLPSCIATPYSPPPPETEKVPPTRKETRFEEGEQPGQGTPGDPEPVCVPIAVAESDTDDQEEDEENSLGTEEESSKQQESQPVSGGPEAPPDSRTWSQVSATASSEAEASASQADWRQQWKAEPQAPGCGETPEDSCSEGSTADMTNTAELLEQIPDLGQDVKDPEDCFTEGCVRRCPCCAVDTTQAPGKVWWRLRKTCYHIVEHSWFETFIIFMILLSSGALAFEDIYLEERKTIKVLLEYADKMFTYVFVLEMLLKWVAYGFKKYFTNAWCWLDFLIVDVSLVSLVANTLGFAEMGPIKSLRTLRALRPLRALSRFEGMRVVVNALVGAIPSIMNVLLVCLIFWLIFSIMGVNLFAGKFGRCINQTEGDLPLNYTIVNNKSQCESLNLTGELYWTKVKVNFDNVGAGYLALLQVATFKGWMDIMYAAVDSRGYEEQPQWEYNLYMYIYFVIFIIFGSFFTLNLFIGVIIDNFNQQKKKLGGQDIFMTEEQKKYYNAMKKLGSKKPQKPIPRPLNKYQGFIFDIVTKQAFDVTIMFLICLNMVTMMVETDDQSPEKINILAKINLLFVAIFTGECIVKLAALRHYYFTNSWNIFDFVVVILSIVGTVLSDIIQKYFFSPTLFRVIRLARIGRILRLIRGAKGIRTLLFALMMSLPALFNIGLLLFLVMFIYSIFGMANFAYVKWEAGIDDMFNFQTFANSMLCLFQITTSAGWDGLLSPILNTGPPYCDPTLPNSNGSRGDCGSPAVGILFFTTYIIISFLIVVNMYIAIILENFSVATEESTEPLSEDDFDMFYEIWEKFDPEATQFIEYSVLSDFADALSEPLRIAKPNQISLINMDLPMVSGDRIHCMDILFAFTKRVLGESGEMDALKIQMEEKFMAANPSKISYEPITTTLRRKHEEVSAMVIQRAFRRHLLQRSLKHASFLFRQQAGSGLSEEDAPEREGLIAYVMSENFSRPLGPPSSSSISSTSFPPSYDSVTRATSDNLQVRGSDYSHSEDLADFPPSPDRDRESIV
For orientation: The patch-clamp technique gives a direct electrical read-out from membranes.

On to `Nc1cc(-c2ccc3nnc(C(F)(F)F)n3c2)ccc1OC(F)(F)F` [BHN-134, 2-(trifluoromethoxy)-5-[3-(trifluoromethyl)[1,2,4]triazolo[4,3-a]pyridin-6-yl]aniline], for which the inhibition at 1 µM stood at 27.8%. The same measure, in the same setting: as for `FC(F)(F)Oc1ccc(-c2ccc3nnc(C(F)(F)OCc4cccc(-n5cnc(C6CC6)c5)c4)n3c2)cc1` [BHN-317, 3-[{[3-(4-cyclopropyl-1H-imidazol-1-yl)benzyl]oxy}(difluoro)methyl]-6-[4-(trifluoromethoxy)phenyl][1,2,4]triazolo[4,3-a]pyridine], the figure is 46.4%.

On to `Cc1cc(OC(F)(F)F)ccc1-c1ccc2nnc(-c3ccc(C#N)cc3)n2n1` [BHN-41, 4-{6-[2-methyl-4-(trifluoromethoxy)phenyl][1,2,4]triazolo[4,3-b]pyridazin-3-yl}benzonitrile], for which the inhibition at 10 µM came out at 59.1%.

On to `FC(F)(F)c1nnc2ccc(-c3ccc(NC(c4ccccc4)C(F)(F)F)cc3)cn12` (stereo not drawn) [BHN-123, 4-[3-(trifluoromethyl)[1,2,4]triazolo[4,3-a]pyridin-6-yl]-N-(2,2,2-trifluoro-1-phenylethyl)aniline], for which the inhibition at 1 µM is 23.4%. Same read-out and setting: as for `FC(F)(F)Oc1ccc(-c2ccc3nnc(C(F)(F)F)n3c2)cc1C(F)(F)F` [BHN-189, 6-[4-(trifluoromethoxy)-3-(trifluoromethyl)phenyl]-3-(trifluoromethyl)[1,2,4]triazolo[4,3-a]pyridine], the figure is 56.9%; as for `COCC(F)(F)c1nnc2ccc(-c3ccc(OC(F)(F)F)c(C)c3)cn12` [BHN-188, 3-(1,1-difluoro-2-methoxyethyl)-6-[3-methyl-4-(trifluoromethoxy)phenyl][1,2,4]triazolo[4,3-a]pyridine], 41.3%; as for `O=C(NCC(F)(F)c1nnc2ccc(-c3ccc(OC(F)(F)F)cc3)cn12)c1ccccc1` [BHN-243, N-(2,2-difluoro-2-{6-[4-(trifluoromethoxy)phenyl][1,2,4]triazolo[4,3-a]pyridin-3-yl}ethyl)benzamide], 21%. For `Cn1cc(-c2nnc3ccc(-c4ccc(OC(F)(F)F)cc4)cn23)cn1` [BHN-82, 3-(1-methyl-1H-pyrazol-4-yl)-6-[4-(trifluoromethoxy)phenyl][1,2,4]triazolo[4,3-a]pyridine], the inhibition at 10 µM came out at 38.9%.

With `Fc1ccccc1COCc1nnc2ccc(-c3ccc(OC(F)(F)F)cc3)cn12` [BHN-238, 3-{[(2-fluorobenzyl)oxy]methyl}-6-[4-(trifluoromethoxy)phenyl][1,2,4]triazolo[4,3-a]pyridine], the inhibition at 1 µM turned out to be 80.6%. In the case of `CC(C)(O)C#Cc1nnc2ccc(-c3ccc(OC(F)(F)F)cc3)cn12` [BHN-173, 2-methyl-4-{6-[4-(trifluoromethoxy)phenyl][1,2,4]triazolo[4,3-a]pyridin-3-yl}but-3-yn-2-ol], the inhibition at 1 µM was 30.8%. The same measure, in the same setting: as for `CC(OC(F)(F)c1nnc2ccc(-c3ccc(OC(F)(F)F)cc3)cn12)c1ccc(Cl)cc1` (stereo not drawn) [BHN-231, 3-{[1-(4-chlorophenyl)ethoxy](difluoro)methyl}-6-[4-(trifluoromethoxy)phenyl][1,2,4]triazolo[4,3-a]pyridine], the figure is 62.9%. On the same count and under the same terms, then `CCOc1cc(OC(F)(F)F)ccc1-c1ccc2nnc(C(F)(F)F)n2c1` [BHN-222, 6-[2-ethoxy-4-(trifluoromethoxy)phenyl]-3-(trifluoromethyl)[1,2,4]triazolo[4,3-a]pyridine], with 65.3%.

On to `CS(=O)(=O)c1ccc(-c2nnc3ccc(-c4ccc(Oc5ccccc5)cc4)nn23)cc1` [BHN-47, 3-[4-(methylsulfonyl)phenyl]-6-(4-phenoxyphenyl)[1,2,4]triazolo[4,3-b]pyridazine], for which the inhibition at 10 µM worked out at 50.7%. `CC(=O)Nc1cc(OC(F)(F)F)ccc1-c1ccc2nnc(-c3ccc(OC(F)(F)F)cc3)n2c1` [BHN-116, N-[5-(trifluoromethoxy)-2-{3-[4-(trifluoromethoxy)phenyl][1,2,4]triazolo[4,3-a]pyridin-6-yl}phenyl]acetamide]: the inhibition at 1 µM is 16.4%. On the same count and under the same terms, as for `FC(F)(F)c1ccc(-c2ccc3nnc(C(F)(F)OCC4CC4)n3c2)cn1` [BHN-275, 3-[(cyclopropylmethoxy)(difluoro)methyl]-6-[6-(trifluoromethyl)pyridin-3-yl][1,2,4]triazolo[4,3-a]pyridine], the figure is 28.6%. For the molecule `Cn1cc(-c2nnc3ccc(-c4ccc(Oc5ccccc5)cc4)nn23)cn1` [BHN-43, 3-(1-methyl-1H-pyrazol-4-yl)-6-(4-phenoxyphenyl)[1,2,4]triazolo[4,3-b]pyridazine], the inhibition at 10 µM amounted to 25.2%. The same measure, in the same setting: then `FC(F)(F)c1nnc2ccc(-c3ccc(Oc4ccccc4)cc3)nn12` [BHN-11, 6-(4-phenoxyphenyl)-3-(trifluoromethyl)[1,2,4]triazolo[4,3-b]pyridazine], with 44.7%.

As for `OC(C1CC1)C(F)(F)c1nnc2ccc(-c3ccc(OC(F)(F)F)cc3)cn12` (stereo not drawn) [BHN-166, 1-cyclopropyl-2,2-difluoro-2-{6-[4-(trifluoromethoxy)phenyl][1,2,4]triazolo[4,3-a]pyridin-3-yl}ethanol], the inhibition at 1 µM was found to be 29.5%. As to `FC(F)c1nnc2ccc(-c3ccc(Oc4ccccc4)cc3)nn12` [BHN-13, 3-(difluoromethyl)-6-(4-phenoxyphenyl)[1,2,4]triazolo[4,3-b]pyridazine], the inhibition at 1 µM was found to be 44.8% and the inhibition at 10 µM stood at 87.1%. `Cc1cc(OC(F)(F)F)ccc1-c1ccc2nnc(C(C)C)n2n1` [BHN-33, 6-[2-methyl-4-(trifluoromethoxy)phenyl]-3-(propan-2-yl)[1,2,4]triazolo[4,3-b]pyridazine]: the inhibition at 1 µM amounted to 59.2% and the inhibition at 10 µM worked out at 75.9%. As to `FC(F)(F)c1ccc(-c2ccc3nnc(C(F)(F)F)n3c2)nn1` [BHN-121, 3-(trifluoromethyl)-6-[6-(trifluoromethyl)pyridazin-3-yl][1,2,4]triazolo[4,3-a]pyridine], the inhibition at 1 µM amounted to 21.9%. In the case of `FC(F)(F)Oc1ccc(-c2ccc3nnc(C(F)(F)OCc4ncccn4)n3c2)cc1` [BHN-245, 3-[difluoro(pyrimidin-2-ylmethoxy)methyl]-6-[4-(trifluoromethoxy)phenyl][1,2,4]triazolo[4,3-a]pyridine], the inhibition at 1 µM stood at 38.8%. As to `Nc1cc(-c2ccc(OC(F)(F)F)cc2)cn2c(-c3ccccc3)nnc12` [BHN-52, 3-phenyl-6-[4-(trifluoromethoxy)phenyl][1,2,4]triazolo[4,3-a]pyridin-8-amine], the inhibition at 10 µM turned out to be 44.9%. In the case of `FC(F)(F)Oc1ccc(-c2ccc3nnc(C(F)(F)OCc4ccccc4-n4cncn4)n3c2)cc1` [BHN-311, 3-(difluoro{[2-(1H-1,2,4-triazol-1-yl)benzyl]oxy}methyl)-6-[4-(trifluoromethoxy)phenyl][1,2,4]triazolo[4,3-a]pyridine], the inhibition at 1 µM worked out at 47.3%. On the same count and under the same terms, as for `COCCOc1cc(OC(F)(F)F)ccc1-c1ccc2nnc(C(F)(F)F)n2c1` [BHN-178, 6-[2-(2-methoxyethoxy)-4-(trifluoromethoxy)phenyl]-3-(trifluoromethyl)[1,2,4]triazolo[4,3-a]pyridine], the figure is 28.5%; as for `COCC(F)(F)c1nnc2ccc(C#Cc3ccc(F)cc3)cn12` [BHN-310, 3-(1,1-difluoro-2-methoxyethyl)-6-[(4-fluorophenyl)ethynyl][1,2,4]triazolo[4,3-a]pyridine], 21.7%; as for `N#CCOc1cc(OC(F)(F)F)ccc1-c1ccc2nnc(C(F)(F)F)n2c1` [BHN-181, {5-(trifluoromethoxy)-2-[3-(trifluoromethyl)[1,2,4]triazolo[4,3-a]pyridin-6-yl]phenoxy}acetonitrile], 18.7%. For the molecule `CC(C)(C#N)c1ccc(-c2ccc3nnc(C(F)(F)F)n3c2)cc1` [BHN-66, 2-methyl-2-{4-[3-(trifluoromethyl)[1,2,4]triazolo[4,3-a]pyridin-6-yl]phenyl}propanenitrile], the inhibition at 1 µM came to 33.2% and the inhibition at 10 µM was found to be 70.7%. With `N#CCOCc1c(-c2ccc(OC(F)(F)F)cc2)ccc2nnc(C(F)(F)F)n12` [BHN-279, ({6-[4-(trifluoromethoxy)phenyl]-3-(trifluoromethyl)[1,2,4]triazolo[4,3-a]pyridin-5-yl}methoxy)acetonitrile], the inhibition at 1 µM came out at 19.1%. Still for that read-out and setting: as for `FC(F)(F)Oc1ccc(-c2ccc3nnc(C(F)(F)OCc4cnn(-c5ccccc5)c4)n3c2)cc1` [BHN-287, 3-{difluoro[(1-phenyl-1H-pyrazol-4-yl)methoxy]methyl}-6-[4-(trifluoromethoxy)phenyl][1,2,4]triazolo[4,3-a]pyridine], the figure is 47.1%; as for `CC(C)(C)OC(=O)N1CCC[C@H]1COC(F)(F)c1nnc2ccc(-c3ccc(OC(F)(F)F)cc3)cn12` [BHN-256, tert-butyl (2S)-2-[(difluoro{6-[4-(trifluoromethoxy)phenyl][1,2,4]triazolo[4,3-a]pyridin-3-yl}methoxy)methyl]pyrrolidine-1-carboxylate], 62.6%. On to `FC(F)(F)c1nnc2ccc(-c3ccc(Nc4ccccc4)cc3)cn12` [BHN-114, N-phenyl-4-[3-(trifluoromethyl)[1,2,4]triazolo[4,3-a]pyridin-6-yl]aniline], for which the inhibition at 1 µM came out at 37.4%. Still for that read-out and setting: then `FC1(F)CCN(c2nnc3ccc(-c4ccc(OC(F)(F)F)cc4)cn23)CC1` [BHN-260, 3-(4,4-difluoropiperidin-1-yl)-6-[4-(trifluoromethoxy)phenyl][1,2,4]triazolo[4,3-a]pyridine], with 38.5%.
